Values of other authors as cited in patent US20190054044A1, “ORAL DOSAGE FORM OF BOTH CLOMIPHENE ISOMERS AND METHOD OF USING SAME TO TREAT SECONDARY HYPOGONADISM AND MINIMIZE DRUG SIDE EFFECTS IN MEN” (ASPEN PARK PHARMACEUTICALS, INC., priority 2016, published 2019).
Where a name gives a salt, the structure may show the parent alone.

Assays:
[1] = baboons
[2] = men
[3] = commercial doses (25 mg PO daily or 50 mg PO every other day)

## CCN(CC)CCOc1ccc(/C(=C(\Cl)c2ccccc2)c2ccccc2)cc1 (single isomer, unassigned) [cis-isomer of clomiphene]
[1]; range of doses tested
  LH secretion: inhibited LH secretion
  peripheral testosterone: reduced peripheral testosterone towards castrate blood levels

## CCN(CC)CCOc1ccc(C(=C(Cl)c2ccccc2)c2ccccc2)cc1 [CLOMID, clomiphene citrate]
[2]
  safety for long-term management of hypogonadism: safe
[2]; long-term
  T levels: raised T levels substantially
  osteopenia/osteoporosis: improving osteopenia/osteoporosis
[3]
  bone mineral density: decrease bone mineral density
  risk of fractures: increase the risk of fractures

## CCN(CC)CCOc1ccc(/C(=C(/Cl)c2ccccc2)c2ccccc2)cc1 [ENCLOMID]
[1]
  total serum testosterone: significantly and statistically raised total serum testosterone

## CCN(CC)CCOc1ccc(/C(=C(/Cl)c2ccccc2)c2ccccc2)cc1 [ANDROXAL, trans clomiphene citrate]
Clinical study
  changes in visual acuity noted as an adverse event: 0.2%
  fatigue (side effect incidence): 2.8%
  headache (side effect incidence): 6.6%
  muscle spasms (side effect incidence): 4%
  transient blurred vision (side effect incidence): 1.4%
Clinical study, conducted during the cold, flu and allergy season
  upper respiratory tract infections (side effect incidence): 11.6%
Treated versus placebo subjects, clinical studies
  number of skeletal fractures: Increase in number of skeletal fractures
